Results taken from US6812214B2, “Use of harpagid-related compounds for prevention and treatment of osteoporosis, arthritis and ruptured disc and pharmaceutical composition containing the same” (priority 2000, dated 2004).
Entries after “also recorded” stand apart in the source; their conditions may differ.

Experiments:
[1] = Effect on arthritis of the compounds isolated from Harpagophytum procumbens DC (summary statement); conditions: summary in background text
[2] = tested on: edema-induced albino rats; test: Inhibitory effect on edema of arthritis (Zymosan-A / Freund's adjuvant induced paw edema); assay type: in vivo; conditions: for inhibitory effect on edema: in words, after 70 days
Experimental: In order to observe the inhibitory effect on edema of the pharmaceutical composition of the present invention, 6 albino rats weighing 200 g were used per test group to induce edema by injecting the mixture of 0.5 ml of Zymosan-A (20 mg/ml/kg) and 0.5 ml of Freund's adjuvant into ST36 position of left paw and then observed for the progress of edema for 70 days by taking a photograph before and after induction of edema. The water extract and organic solvent fractions of the pharmaceutical composition of the present invention were respectively constituted in the concentration of 0.6 mg/ml and then orally administered for 14 days to albino rats in an amount of 1 ml per kg of body weight once a day to determine the inhibitory effect on edema. As the test sample, the organic solvent fractions of the pharmaceutical composition including ABE, ABB, ABW, CBE, CBB, CBW, LNE, LNB, LNW, CRB, CRW, SSH and SSW were respectively used. As the result of this test, it was observed that edema was started to induce on day 4 and reached the peak point after about 45 days. The period for this test was established as 70 days after edema induction to observe the inhibitory effect on edema of the extracts of the present invention. As the result, the edema size was measured using a precision gauge.

COX-II [3] = test: Inhibition of COX-II expression at the level of transcription through RT-PCR; assay type: cell-based
Experimental: In order to identify the ingredient having an inhibitory activity against COX-II and inducible nitric oxide synthetase (iNOS) as the causal factors of rheumatoid arthritis in the extract used as the effective component of the pharmaceutical composition according to the present invention as in Experiment 6 above, the cells were distributed in T75 flask at the concentration of 10^5 cells, incubated for 7 days and then stimulated for 2 hours by introducing LPS in the flask at the concentration of 50 ng/ml. Then, the extract of the present invention was added so as to make the final concentration of 50 μg/ml. The cells were harvested into a 1.5 ml Eppendorf tube and centrifuged with 15,000 rpm at 4° C. for 15 minutes to remove the supernatant. 200 μl of RNAzol solution was added to the residue followed by addition of 50 μl of chloroform. The cells were lysed by careful pippeting, and then centrifuged with 15,000 rpm at 4° C. for 15 minutes to recover a total RNA, which was then precipitated at 4° C. for 15 minutes by adding the same volume of isopropanol, washed once with 75% ethanol and then dried. The cell lysate was dissolved by adding 20 μl of […] and then warming the mixture at 60° C. for 30 minutes. Then, reverse transcriptase reaction was conducted at 50° C. for 20 minutes by adding 5 μl of 10 mM dNTP, 6 μl of 25 mM MgCl2, 5 μl of 10× RNA PCR buffer, 1 μl of RNase inhibitor, 1 μl of AMV-optimized Taq, 1 μl of AMV reverse transcriptase XL, 1 μl of 50 pM specific primer (sense/antisense), and 26 μl of RNase free dH2O to 5 μl of total RNA, and then stopped at 94° C. for 2 minutes to conduct DNA synthetic reaction (polymerase chain reaction: PCR). The PCR was conducted under conditions comprising 94° C. 1 minute, 55° C. 45 seconds, 70° C. 60 seconds for 35 cycles, and then, finally the elongation reaction was conducted at 70° C. for 5 minutes to complete the reaction. The resulting PCR product was eluted on 1% agarose gel and observed whether the bands are present near 395 bp and 278 bp on the basis of a size marker.

Raw 264.7 cell lines [4] = test: Induction of apoptosis of macrophages; assay type: cell-based; conditions: Raw 264.7 cells; 10 μg/ml, 24 hours
Experimental: (§1) In order to determine whether the compound identified as the effective component of the pharmaceutical composition separated according to the present invention can induce the apoptosis of Raw 264.7 cell lines as macrophage involved in inflammatory reaction and synovial cells, the cells were distributed on 5% DMEM medium supplemented with penicillin/streptomycin in a 6-well culture dish at the concentration of 10^4 cells and then incubated at 37° C. for 24 hours while adding the extractions as above at the concentration of 10 μg/ml to observe the reaction. Apoptosis was examined by taking a photograph of apoptosis-induced cells under a polarizing microscope of 200 magnifications.

synovial cells = test: Induction of apoptosis of synovial cell lines; assay type: cell-based, human; conditions: 10 μg/ml, 24 hours
Experimental: The synovial cells separated from outpatients suffering from rheumatoid arthritis were distributed on 5% DMEM medium supplemented with penicillin/streptomycin in a 6-well culture dish at the concentration of 10^4 cells and then incubated for 24 hours at 37° C. to observe the surviving cells. In order to determine the presence or absence of cells and the proliferating state of cells, apoptosis-induced cells were examined by taking their photographs under a phase-contrast microscope of 200 magnifications.
as §1

Raw 264.7 cell lines [5] = test: Effect on cell cycle of macrophage cells (flow cytometry); assay type: cell-based; conditions: 20 μg/ml, LPS 50 ng/ml, propidium iodide flow cytometry
Experimental: (§2) Two kinds of cells were incubated as in Experiment 6 and then washed with PBS (phosphate-buffered saline). LPS was distributed on the respective dishes at the concentration of 50 ng/ml to stimulate the cells. Then, the extract according to the present invention was added over 2 hours so as to make the final concentration of 20 μg/ml. The supernatant was removed, washed with PBS and then treated with trypsin. The cells were harvested, introduced into Eppendorf tube and then centrifuged at 1,000 rpm for 5 minutes to remove the supernatant. The residue was fixed with addition of 1 ml of 100% ethanol. At this time, the mixture of 5 μg/ml propidium iodide and RNAse was separately prepared. The fixed cells were centrifuged to remove the supernatant and then washed once with PBS. Simultaneously, the staining agent as previously prepared above was added to the fixed cells and then warmed in an incubator at 37° C. for 30 minutes. The cells stained with propidium iodide was sealed with foil, stored at 4° C. and then subjected to a flow cytometry analysis using FACscan (Becton Dickinson, Calif.) as the analyzing apparatus.

COX-II [6] = test: Expression of COX-II protein by immunocytochemical analysis in synovial cells; assay type: cell-based; conditions: 10 μg/ml
Experimental: In order to determine whether the compound identified as the effective component of the pharmaceutical composition separated by the present invention induces an inhibitory effect on COX-II of synovial cells in joint portion, 10^4 synovial cells were distributed on 5% DMEM medium supplemented with penicillin/streptomycin in 6-well culture dish containing a slimb over glass, incubated for 24 hours at 37° C., during which the extract of the present invention was added to the concentration of 10 μg/ml to observe the reaction. The waste was removed and then, the cells were washed once with PBS, fixed with methanol and then washed with PBS. The cells were labeled with the primary antibody COX-II and then allowed to stand at 4° C. for about one hour. Then, the cells were labeled with a fluorescence (fluorescein isothiocyanate: FITC) as the secondary antibody, allowed to stand for about one hour while masking from light with foil and then observed under a fluorescence microscope.

[7] = tested on: CAM formation induced by synovial cells; test: Angiogenesis of synovial cells in chorioallantoic membrane (CAM) of fertilized egg; conditions: 10 μg/ml on CAM; compared to control group
Experimental: In order to determine the effect of the organic solvent fractions obtained in Experiment 1 on the angionenesis of synovial cells using the cells separated in Experiment 2, synovial cells were injected into fertilized egg and then incubated in an incubator at 37° C. for 3 days to observe the formation of chorioallantoic membrane (CAM). In the present state, the fractions separated according to the above method were respectively distributed on CAM at the concentration of 10 μg/ml to observe the degree of CAM decrease.

[8] = tested on: NO formation in RAW 264.7 cell lines; test: NO formation in macrophage cells stimulated by lipid polysaccharide; assay type: cell-based; conditions: 10 μg/ml; LPS 50 ng/well; Greiss reagent
Experimental: In order to identify whether the extracts obtained according to the present invention can inhibit the synthesis of nitric oxide (NO) as the potent inducer of inflammation in blood due to edema as above, macrophage RAW 264.7 cell lines were distributed in a 96-well microplate at the concentration of 10^3 cells per well and then incubated for 12 hours. Then, lipid polysaccharide was added to the plate at the concentration of 50 ng/well to stimulate the cells for 2 hours. The respective organic solvent fractions were added to the plate to the final concentration of 10 μg/ml followed by addition of 50 μl of Greiss reagent solution, and then allowed to react together at room temperature. Then, the absorbance of the plate was measured at 540 nm of ELISA (enzyme-linked immunosorbent assay) reader. For comparative analysis, 0.1, 1, 10, 20, 50, 100, 150 μM sodium nitrite as the standard solution were developed with sodium nitroprusside dihydrate (SNP).

iNOS = test: Inhibition of iNOS expression at the level of transcription through RT-PCR; assay type: cell-based; conditions: FIG. 11a; 50 μg/ml; LPS 50 ng/ml
Experimental: In order to identify the ingredient having an inhibitory activity against COX-II and inducible nitric oxide synthetase (iNOS) as the causal factors of rheumatoid arthritis in the extract used as the effective component of the pharmaceutical composition according to the present invention as in Experiment 6 above, the cells were distributed in T75 flask at the concentration of 10^5 cells, incubated for 7 days and then stimulated for 2 hours by introducing LPS in the flask at the concentration of 50 ng/ml. Then, the extract of the present invention was added so as to make the final concentration of 50 μg/ml. The cells were harvested into a 1.5 ml Eppendorf tube and centrifuged with 15,000 rpm at 4° C. for 15 minutes to remove the supernatant. 200 μl of RNAzol solution was added to the residue followed by addition of 50 μl of chloroform. The cells were lysed by careful pippeting, and then centrifuged with 15,000 rpm at 4° C. for 15 minutes to recover a total RNA, which was then precipitated at 4° C. for 15 minutes by adding the same volume of isopropanol, washed once with 75% ethanol and then dried. The cell lysate was dissolved by adding 20 μl of […] and then warming the mixture at 60° C. for 30 minutes. […]

[9] = tested on: nogo-A expressed U-373 MG cell line; test: Neurite regeneration in nogo-A expressing glioblastoma cells (vertebral neuroparalysis); assay type: cell-based; conditions: nogo-A transfected U-373 cells; phase-contrast microscope
Excerpt: Simultaneously, it was also observed whether neurites can be regenerated by treatment with neuronal growth factor (NGF) or whether the fractions of the present invention can provide the same effect, by taking a photograph with a phase-contrast microscope of 200 magnifications.

synovial cell lines = test: Effect on cell cycle of synovial cell lines (flow cytometry); assay type: cell-based, human; conditions: 20 μg/ml, LPS 50 ng/ml, propidium iodide flow cytometry
Experimental: as §2

[10] = tested on: edema-induced albino rats; test: Joint rupture in edema-inhibited albino rats by X-ray analysis; assay type: in vivo; conditions: oral 14 days, 75 μg/ml; about 70 days
Experimental: The respective water extract and organic solvent fractions were orally administered for 14 days at the concentration of 75 μg/ml to investigate their inhibitory effect on edema as in Experiment 1. The test albino rats were anesthetized to take X-ray photograph.

SMILES | effect on arthritis [1] | edema size after treatment ([2]; Table 3 (best fractions), measured after 70 days, unit not given, in mm) | edema size before treatment ([2]; Table 3 (best fractions), unit not given, in mm) | inhibitory effect on edema [2] | effect on COX-II expression (RT-PCR) (COX-II [3]; FIG. 11c, respective fractions) | induction of apoptosis (Raw 264.7 cell lines [4]) | induction of apoptosis (synovial cells) | effect on cell cycle (Raw 264.7 cell lines [5]) | COX-II protein expression (immunofluorescence, FITC) (COX-II [6]) | induction of CAM formation (angiogenesis by synovial cells) [7] | inhibition of NO formation [8] | effect on iNOS expression (RT-PCR band near 278 bp) (iNOS) | neurite pattern (regeneration of neurites) [9] | effect on cell cycle (synovial cell lines) | effect on COX-II expression (RT-PCR) (COX-II [3]; FIG. 11a, 50 μg/ml, LPS 50 ng/ml) | osteogenesis (X-ray) [10] | rupture of cartilage in arthritic portion (X-ray) [10]
C[C@]1(OC(=O)/C=C/c2ccccc2)C[C@@H](O)[C@]2(O)C=CO[C@@H](O[C@@H]3O[C@H](CO)[C@@H](O)[C@H](O)[C@H]3O)[C@@H]21 [LNE-1, harpagoside] | moderate pharmacological effect | 5.1 ± 2 | 15.1 ± 2 | potent inhibitory effect on edema | strongly inhibit the protein expression | more strongly inducing the apoptosis | more strongly inducing the apoptosis | – | – | – | – | – | – | – | – | – | –
OC[C@H]1O[C@H](OC[C@H]2O[C@H](OC[C@H]3O[C@H](O[C@]4(CO)O[C@H](CO)[C@@H](O)[C@@H]4O)[C@H](O)[C@@H](O)[C@@H]3O)[C@H](O)[C@@H](O)[C@H]2O)[C@H](O)[C@@H](O)[C@H]1O [LNE-2, starchyose] | – | – | – | – | – | – | – | induced G0/G1 arrest | – | – | – | – | – | – | – | – | –
C[C@]1(O)C[C@@H](O)[C@]2(O)C=CO[C@@H](O[C@H]3O[C@H](CO)[C@@H](O)[C@H](O)[C@H]3O)[C@@H]21 [LNE-3, harpagide] | most effective | – | – | potent inhibitory effect on edema; also recorded: most significant | strongly inhibit the protein expression | more strongly inducing the apoptosis | more strongly inducing the apoptosis | – | tendency to greatly decrease the protein expression | more strongly inhibited the induction of CAM formation | stronger inhibitory effect on NO formation | have an effect on the protein expression | neurites were lengthened | induced the apoptosis | inhibitory effect at the level of transcription | effect of stimulating the osteogenesis | inhibits the rupture of cartilage in arthritic portion
